# Measurements as given in ChEMBL document CHEMBL5537159, “Discovery and SAR of JTE-151: A Novel RORγ Inhibitor for Clinical Development” (J Med Chem, 2024).
# pIC50: −log10 of the molar value. Active and inactive are the calls of the source. The calls are words filed in the database; no cut-off is given here.
# How the values were obtained:
# [1] = Selectivity ratio of agonist activity at human PPARgamma to inhibition of RORgamma (unknown origin)
# [2] = biological target: 5-hydroxytryptamine receptor 3A (Homo sapiens, UniProt P46098); assay: Inhibition of human 5-HT3 receptor
# [3] = Inhibition of rat nitric oxide synthase
# [4] = Selectivity ratio of agonist activity at human PR to inhibition of RORgamma (unknown origin)
# Cytochrome P450 2C19 = Cytochrome P450 2C19 (Homo sapiens, UniProt P33261); assay: Inhibition of CYP2C19 in human liver microsomes; type: ADME, Microsome
# Sequence of Cytochrome P450 2C19 (P33261 whole entry): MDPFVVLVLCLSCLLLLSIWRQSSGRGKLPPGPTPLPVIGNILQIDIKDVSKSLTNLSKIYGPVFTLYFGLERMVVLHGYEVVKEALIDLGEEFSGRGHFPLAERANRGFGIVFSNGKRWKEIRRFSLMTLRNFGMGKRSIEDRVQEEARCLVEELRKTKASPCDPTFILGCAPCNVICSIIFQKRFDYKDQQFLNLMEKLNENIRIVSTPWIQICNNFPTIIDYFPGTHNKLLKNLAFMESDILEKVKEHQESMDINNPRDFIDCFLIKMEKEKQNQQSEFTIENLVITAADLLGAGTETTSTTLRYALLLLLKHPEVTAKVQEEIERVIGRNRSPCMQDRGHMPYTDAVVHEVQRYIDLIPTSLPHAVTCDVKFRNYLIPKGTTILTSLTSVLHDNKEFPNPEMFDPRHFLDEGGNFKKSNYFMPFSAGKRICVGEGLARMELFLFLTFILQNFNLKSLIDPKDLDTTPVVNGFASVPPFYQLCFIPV
# Cytochrome P450 1A2 = Cytochrome P450 1A2 (Homo sapiens, UniProt P05177); assay: Inhibition of CYP1A2 in human liver microsomes; type: ADME, Microsome
# Sequence of Cytochrome P450 1A2 (P05177 whole entry): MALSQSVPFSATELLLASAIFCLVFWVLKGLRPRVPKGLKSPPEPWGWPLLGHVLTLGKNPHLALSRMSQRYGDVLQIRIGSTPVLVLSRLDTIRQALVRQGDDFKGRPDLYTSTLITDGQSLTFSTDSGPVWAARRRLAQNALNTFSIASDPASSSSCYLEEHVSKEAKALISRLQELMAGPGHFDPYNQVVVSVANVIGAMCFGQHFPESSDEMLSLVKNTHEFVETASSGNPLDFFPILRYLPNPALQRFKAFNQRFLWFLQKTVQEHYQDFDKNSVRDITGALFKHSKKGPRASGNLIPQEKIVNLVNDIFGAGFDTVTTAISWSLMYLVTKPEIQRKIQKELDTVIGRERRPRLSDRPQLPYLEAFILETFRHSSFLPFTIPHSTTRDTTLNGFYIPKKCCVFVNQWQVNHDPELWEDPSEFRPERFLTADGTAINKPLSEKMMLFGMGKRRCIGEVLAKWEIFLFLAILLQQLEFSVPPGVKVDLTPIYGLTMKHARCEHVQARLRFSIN
# [5] = Tmax in human at 1000 […], po administered as single dose and measured upto 144 hrs; type: ADME, organism-based; conditions: in vivo
# [6] = Inhibition of human nicotinic receptor
# [7] = Selectivity ratio of antagonist activity at human PPARalpha to inhibition of RORgamma (unknown origin)
# [8] = Elimination half life in human at 60 mg/kg, po administered as single dose and measured upto 144 hrs; type: ADME, organism-based; conditions: in vivo, read-out: beta t1/2 (converted)
# [9] = AUCinfinity in CD(SD) rat at 10 mg/kg, po administered as single dose and measured after 24 hrs; type: ADME, organism-based; conditions: in vivo
# [10] = Selectivity ratio of agonist activity at human PPARalpha to inhibition of RORgamma (unknown origin)
# [11] = Elimination half life in human at 1600 mg/kg, po administered as single dose and measured upto 144 hrs; type: ADME, organism-based; conditions: in vivo, read-out: beta t1/2 (converted)
# [12] = Tmax in human at 400 […], po administered as single dose and measured upto 144 hrs; type: ADME, organism-based; conditions: in vivo
# Cytochrome P450 3A4 = Cytochrome P450 3A4 (Homo sapiens, UniProt P08684); assay: Inhibition of CYP3A4 in human liver microsomes using testosterone as substrate; type: ADME, Microsome
# Sequence of Cytochrome P450 3A4 (P08684 whole entry): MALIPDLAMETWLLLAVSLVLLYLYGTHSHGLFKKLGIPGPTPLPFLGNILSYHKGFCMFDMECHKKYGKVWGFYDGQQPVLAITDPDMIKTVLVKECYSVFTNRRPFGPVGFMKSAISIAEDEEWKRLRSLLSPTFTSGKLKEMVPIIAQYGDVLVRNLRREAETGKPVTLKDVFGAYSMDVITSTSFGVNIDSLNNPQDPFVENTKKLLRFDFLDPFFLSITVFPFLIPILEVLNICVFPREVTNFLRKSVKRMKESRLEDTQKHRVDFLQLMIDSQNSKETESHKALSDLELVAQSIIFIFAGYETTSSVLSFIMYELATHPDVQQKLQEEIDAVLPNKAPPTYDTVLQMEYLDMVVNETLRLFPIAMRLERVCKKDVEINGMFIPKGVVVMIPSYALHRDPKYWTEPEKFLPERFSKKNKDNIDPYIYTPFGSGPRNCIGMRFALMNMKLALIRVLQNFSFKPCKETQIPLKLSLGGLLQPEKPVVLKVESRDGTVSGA
# [13] = Elimination half life in human at 100 […], po administered as single dose and measured upto 144 hrs; type: ADME, organism-based; conditions: in vivo, read-out: beta t1/2 (converted)
# [14] = Volume of distribution at steady state in Beagle dog at 1 mg/kg, iv administered as single dose and measured after 24 hrs; type: ADME, organism-based, Canis lupus familiaris; conditions: in vivo, read-out: Vdss
# [15] = AUClast in human at 600 mg/kg, po administered as single dose and measured upto 144 hrs; type: ADME, organism-based; conditions: in vivo
# Mus musculus = assay: Anti-inflammatory activity in complete Freund's adjuvant/MOG (35 to 55 residues)/pertussis toxin-induced experimental autoimmune encephalomyelitis C57BL/6 mouse model assessed as reduction in Th17 cell differentiation by measuring reduction in number of Th17 cells in spinal cords at 3 to 10 mg/kg, po administered once daily for 17 days and measured on day 18 by flow cytometry analysis; type: functional, organism-based; conditions: dose 3-10 mg/kg, time 18.0 day
# [16] = Inhibition of rat opioid receptor
# [17] = biological target: Beta-3 adrenergic receptor (Homo sapiens, UniProt P13945); assay: Inhibition of human adrenergic beta3 receptor
# Sequence of Beta-3 adrenergic receptor (P13945 whole entry): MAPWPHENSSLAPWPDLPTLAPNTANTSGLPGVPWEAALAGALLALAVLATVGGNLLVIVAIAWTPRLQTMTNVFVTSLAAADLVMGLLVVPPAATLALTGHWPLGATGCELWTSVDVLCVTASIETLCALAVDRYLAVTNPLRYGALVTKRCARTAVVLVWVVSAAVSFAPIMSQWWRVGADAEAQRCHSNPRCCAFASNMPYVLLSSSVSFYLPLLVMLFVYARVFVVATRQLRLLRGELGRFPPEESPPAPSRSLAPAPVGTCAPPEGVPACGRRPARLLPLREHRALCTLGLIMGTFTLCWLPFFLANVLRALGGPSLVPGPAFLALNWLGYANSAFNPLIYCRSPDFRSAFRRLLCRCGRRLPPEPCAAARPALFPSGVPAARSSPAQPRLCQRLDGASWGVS
# [18] = Genotoxicity in Salmonella typhimurium TA100 at 23 to 750 ug in absence of S9 fraction by bacterial reverse mutation test; type: toxicity, Salmonella enterica subsp. enterica serovar Typhimurium; conditions: in vivo; dose 23-750 µg
# [19] = Cmax in human at 100 […], po administered as single dose and measured upto 144 hrs; type: ADME, organism-based; conditions: in vivo
# [20] = biological target: 5-hydroxytryptamine receptor 1A (Homo sapiens, UniProt P08908); assay: Inhibition of human 5-HT1A receptor
# Sequence of 5-hydroxytryptamine receptor 1A (P08908 whole entry): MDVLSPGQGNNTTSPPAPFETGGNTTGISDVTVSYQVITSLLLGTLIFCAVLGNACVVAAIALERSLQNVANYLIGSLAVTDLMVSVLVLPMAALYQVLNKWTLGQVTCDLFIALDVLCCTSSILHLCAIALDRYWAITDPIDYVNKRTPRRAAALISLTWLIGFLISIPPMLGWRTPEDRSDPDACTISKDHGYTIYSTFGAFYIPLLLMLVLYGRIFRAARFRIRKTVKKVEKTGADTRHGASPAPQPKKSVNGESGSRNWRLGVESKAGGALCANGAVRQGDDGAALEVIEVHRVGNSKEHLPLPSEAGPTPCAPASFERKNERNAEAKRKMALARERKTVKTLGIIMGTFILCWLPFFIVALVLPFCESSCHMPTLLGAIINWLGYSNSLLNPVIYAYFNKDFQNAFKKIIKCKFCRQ
# [21] = Selectivity ratio of agonist activity at mouse GR to inhibition of RORgamma (unknown origin)
# D(1A) dopamine receptor = D(1A) dopamine receptor (Homo sapiens, UniProt P21728); assay: Inhibition of human dopamine D1 receptor
# Sequence of D(1A) dopamine receptor (P21728 whole entry): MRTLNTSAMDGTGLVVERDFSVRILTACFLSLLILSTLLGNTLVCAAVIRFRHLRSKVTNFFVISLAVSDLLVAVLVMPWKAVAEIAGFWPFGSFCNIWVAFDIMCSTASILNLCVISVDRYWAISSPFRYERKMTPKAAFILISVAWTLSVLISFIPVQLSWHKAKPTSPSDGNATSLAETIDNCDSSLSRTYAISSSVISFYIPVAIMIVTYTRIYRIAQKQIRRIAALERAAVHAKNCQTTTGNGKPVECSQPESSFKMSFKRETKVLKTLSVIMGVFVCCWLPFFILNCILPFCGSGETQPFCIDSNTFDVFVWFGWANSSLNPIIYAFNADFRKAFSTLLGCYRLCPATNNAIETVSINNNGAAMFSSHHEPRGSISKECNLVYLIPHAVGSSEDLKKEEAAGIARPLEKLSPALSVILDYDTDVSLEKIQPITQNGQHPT
# [22] = MRT in CD(SD) rat at 10 mg/kg, po administered as single dose and measured after 24 hrs; type: ADME, organism-based; conditions: in vivo
# [23] = Selectivity ratio of antagonist activity at human PPARdelta to inhibition of RORgamma (unknown origin)
# [24] = Selectivity ratio of agonist activity at human VDR to inhibition of RORgamma (unknown origin)
# [25] = biological target: GABA-A receptor; anion channel; assay: Inhibition of rat GABA-A receptor; type: protein-complex assay
# Cytochrome P450 2B6 = Cytochrome P450 2B6 (Homo sapiens, UniProt P20813); assay: Inhibition of CYP2B6 in human liver microsomes; type: ADME, Microsome
# Sequence of Cytochrome P450 2B6 (P20813 whole entry): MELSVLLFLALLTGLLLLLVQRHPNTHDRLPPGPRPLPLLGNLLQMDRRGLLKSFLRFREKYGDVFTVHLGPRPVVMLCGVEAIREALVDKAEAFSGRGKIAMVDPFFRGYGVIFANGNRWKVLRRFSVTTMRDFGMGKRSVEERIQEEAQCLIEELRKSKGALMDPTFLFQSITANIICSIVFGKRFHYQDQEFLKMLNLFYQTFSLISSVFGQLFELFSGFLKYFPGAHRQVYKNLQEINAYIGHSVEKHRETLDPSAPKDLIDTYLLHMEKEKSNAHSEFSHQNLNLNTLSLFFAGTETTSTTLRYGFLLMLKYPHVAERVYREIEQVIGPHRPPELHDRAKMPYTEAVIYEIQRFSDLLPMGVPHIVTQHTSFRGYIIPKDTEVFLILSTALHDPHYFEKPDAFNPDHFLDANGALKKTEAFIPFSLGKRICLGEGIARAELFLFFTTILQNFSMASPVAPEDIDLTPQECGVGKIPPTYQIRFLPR
# [26] = Selectivity ratio of agonist activity at mouse LXRalpha to inhibition of RORgamma (unknown origin)
# [27] = Oral bioavailability in Beagle dog at 3 mg/kg administered as single dose and measured after 24 hrs; type: ADME, organism-based, Canis lupus familiaris; conditions: in vivo
# [28] = biological target: Adrenergic receptor alpha-1 (Rattus norvegicus, UniProt P15823+P23944+P43140); assay: Inhibition of rat adrenergic alpha1 receptor; type: protein assay
# Cytochrome P450 3A5 = Cytochrome P450 3A5 (Homo sapiens, UniProt P20815); assay: Inhibition of CYP3A5 in human liver microsomes using testosterone as substrate; type: ADME, Microsome
# Sequence of Cytochrome P450 3A5 (P20815 whole entry): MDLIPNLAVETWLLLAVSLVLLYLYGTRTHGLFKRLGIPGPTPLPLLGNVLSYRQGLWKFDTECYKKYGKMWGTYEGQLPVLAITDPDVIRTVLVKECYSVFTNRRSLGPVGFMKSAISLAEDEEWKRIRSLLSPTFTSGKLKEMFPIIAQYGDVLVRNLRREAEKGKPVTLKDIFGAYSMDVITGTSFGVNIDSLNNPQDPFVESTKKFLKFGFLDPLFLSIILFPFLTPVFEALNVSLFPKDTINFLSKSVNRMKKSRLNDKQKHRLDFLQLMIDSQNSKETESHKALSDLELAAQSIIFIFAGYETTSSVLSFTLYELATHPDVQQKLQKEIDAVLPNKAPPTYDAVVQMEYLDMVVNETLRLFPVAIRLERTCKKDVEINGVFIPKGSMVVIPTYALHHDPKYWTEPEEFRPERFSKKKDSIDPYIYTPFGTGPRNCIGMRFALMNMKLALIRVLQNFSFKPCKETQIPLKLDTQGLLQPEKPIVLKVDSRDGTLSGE
# [29] = Total body clearance in CD(SD) rat at 1 mg/kg, iv administered as single dose and measured after 24 hrs; type: ADME, organism-based; conditions: in vivo
# [30] = AUCinfinity in Beagle dog at 3 mg/kg, po administered as single dose and measured after 24 hrs; type: ADME, organism-based, Canis lupus familiaris; conditions: in vivo
# [31] = Cmax in human at 60 […], po administered as single dose and measured upto 144 hrs; type: ADME, organism-based; conditions: in vivo
# [32] = AUClast in human at 200 mg/kg, po administered as single dose and measured upto 144 hrs; type: ADME, organism-based; conditions: in vivo
# [33] = Elimination half life in human at 400 mg/kg, po administered as single dose and measured upto 144 hrs; type: ADME, organism-based; conditions: in vivo, read-out: beta t1/2 (converted)
# [34] = Tmax in human at 1600 […], po administered as single dose and measured upto 144 hrs; type: ADME, organism-based; conditions: in vivo
# [35] = Elimination half life in C57BL/6J mouse at 1 mg/kg, iv administered as single dose and measured after 24 hrs; type: ADME, organism-based; conditions: in vivo, read-out: beta t1/2 (converted)
# [36] = biological target: 5-hydroxytryptamine receptor 2A (Homo sapiens, UniProt P28223); assay: Inhibition of human 5-HT2A receptor
# Sequence of 5-hydroxytryptamine receptor 2A (P28223 whole entry): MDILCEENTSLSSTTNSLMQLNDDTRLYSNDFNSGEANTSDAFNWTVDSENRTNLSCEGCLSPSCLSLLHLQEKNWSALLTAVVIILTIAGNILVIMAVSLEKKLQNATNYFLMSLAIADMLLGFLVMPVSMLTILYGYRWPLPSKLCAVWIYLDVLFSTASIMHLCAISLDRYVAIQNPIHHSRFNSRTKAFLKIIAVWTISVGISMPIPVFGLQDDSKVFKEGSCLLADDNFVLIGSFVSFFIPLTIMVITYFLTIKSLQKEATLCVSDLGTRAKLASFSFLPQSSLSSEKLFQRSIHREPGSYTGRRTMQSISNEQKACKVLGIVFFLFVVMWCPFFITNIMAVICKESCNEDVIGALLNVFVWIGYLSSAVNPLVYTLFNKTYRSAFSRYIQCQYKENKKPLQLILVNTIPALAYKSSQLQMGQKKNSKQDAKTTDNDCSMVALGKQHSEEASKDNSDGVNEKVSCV
# [37] = Cmax in human at 1600 […], po administered as single dose and measured upto 144 hrs; type: ADME, organism-based; conditions: in vivo
# [38] = Selectivity ratio of antagonist activity at mouse GR to inhibition of RORgamma (unknown origin)
# Adenosine receptor A1 = Adenosine receptor A1 (Homo sapiens, UniProt P30542); assay: Inhibition of human Adenosine A1 receptor
# Sequence of Adenosine receptor A1 (P30542 whole entry): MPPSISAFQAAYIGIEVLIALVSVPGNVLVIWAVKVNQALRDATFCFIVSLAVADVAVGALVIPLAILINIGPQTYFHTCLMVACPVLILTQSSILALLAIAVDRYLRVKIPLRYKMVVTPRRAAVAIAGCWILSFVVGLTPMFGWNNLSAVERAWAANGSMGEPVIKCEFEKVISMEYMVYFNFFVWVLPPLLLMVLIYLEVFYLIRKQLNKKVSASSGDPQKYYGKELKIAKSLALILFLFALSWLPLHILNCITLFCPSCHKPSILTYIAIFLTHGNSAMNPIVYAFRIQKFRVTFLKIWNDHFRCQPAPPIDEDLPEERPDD
# [39] = Elimination half life in cynomolgus monkey at 1 mg/kg, iv administered as single dose and measured after 24 hrs; type: ADME, organism-based, Macaca fascicularis; conditions: in vivo, read-out: beta t1/2 (converted)
# [40] = Selectivity ratio of antagonist activity at human RORalpha to inhibition of RORgamma (unknown origin)
# [41] = Inhibition of rat Muscarinic receptor
# [42] = Tmax in human at 600 […], po administered as single dose and measured upto 144 hrs; type: ADME, organism-based; conditions: in vivo
# Histamine H3 receptor = Histamine H3 receptor (Homo sapiens, UniProt Q9Y5N1); assay: Inhibition of human histamine H3 receptor
# [43] = Toxicity in CHL cells assessed as chromosomal aberration at 30 to 50 ug/ml incubated for 24 hrs in presence of S9 fraction; type: subcellular, Cricetulus griseus; conditions: chinese hamster, s9, 24 h, dose 30-50 µg/ml
smiles,measurement,setting,value
Cc1ccc(NC(=O)C[C@H](CCC(=O)O)c2noc([C@H]3C[C@@H](CC(C)(C)C)C3)c2C2CC2)c(Cl)c1,Selectivity ratio,[1],> 100
same,pIC50,[2],< 5.00
same,pIC50,[3],< 5.00
same,Selectivity ratio,[4],> 100
same,pIC50,Cytochrome P450 2C19,< 5.00
same,pIC50,Cytochrome P450 1A2,< 5.00
same,Tmax,[5],3.5 h
same,pIC50,[6],< 5.00
same,Selectivity ratio,[7],> 100
same,half-life,[8],5.49 h
same,AUC(0-inf),[9],191 µM·h
same,Selectivity ratio,[10],> 100
same,half-life,[11],10.7 h
same,Tmax,[12],3 h
same,pIC50,Cytochrome P450 3A4,< 5.00
same,half-life,[13],13.2 h
same,Vd,[14],0.19 L/kg
same,AUC(0-t) at 144 h,[15],140000 ng·h/mL
same,Activity,Mus musculus,Active
same,pIC50,[16],< 5.00
same,pIC50,[17],< 5.00
same,Activity,[18],Non-Toxic
same,Cmax,[19],3810 ng/mL
same,pIC50,[20],< 5.00
same,Selectivity ratio,[21],> 100
same,pIC50,D(1A) dopamine receptor,5.21
same,MRT,[22],5.6 h
same,Selectivity ratio,[23],> 100
same,Selectivity ratio,[24],> 100
same,pIC50,[25],< 5.00
same,pIC50,Cytochrome P450 2B6,< 5.00
same,Selectivity ratio,[26],> 100
same,bioavailability,[27],64%
same,IC50,[28],> 10 µM
same,pIC50,Cytochrome P450 3A5,< 5.00
same,clearance,[29],1.83 mL/min/kg
same,AUC(0-inf),[30],118 µM·h
same,Cmax,[31],2260 ng/mL
same,AUC(0-t) at 144 h,[32],49500 ng·h/mL
same,half-life,[33],7.42 h
same,Tmax,[34],3.54 h
same,half-life,[35],3.8 h
same,pIC50,[36],< 5.00
same,Cmax,[37],60700 ng/mL
same,Selectivity ratio,[38],> 100
same,pIC50,Adenosine receptor A1,< 5.00
same,half-life,[39],5.9 h
same,Selectivity ratio,[40],> 100
same,pIC50,[41],< 5.00
same,Tmax,[42],3 h
same,pIC50,Histamine H3 receptor,< 5.00
same,Activity,[43],Non-Toxic
